Laboratory results from US11078153B2, “2-difluoro substituted 4-aminocyclopentanecarboxylic acids as inhibitors of gamma-aminobutyric acid aminotransferase and human ornithine aminotransferase” (Northwestern University, priority 2019, dated 2021).
Entries after “also recorded” stand apart in the source; their conditions may differ. Where two headings read alike, the source gives them in different places.

Key:
OAT [1] = target: T1, OAT (Homo sapiens, UniProt P04181); test: Time-dependent assay with OAT (kinact/KI); assay type: biochemical
T1 sequence (P04181 36-439 limits assumed): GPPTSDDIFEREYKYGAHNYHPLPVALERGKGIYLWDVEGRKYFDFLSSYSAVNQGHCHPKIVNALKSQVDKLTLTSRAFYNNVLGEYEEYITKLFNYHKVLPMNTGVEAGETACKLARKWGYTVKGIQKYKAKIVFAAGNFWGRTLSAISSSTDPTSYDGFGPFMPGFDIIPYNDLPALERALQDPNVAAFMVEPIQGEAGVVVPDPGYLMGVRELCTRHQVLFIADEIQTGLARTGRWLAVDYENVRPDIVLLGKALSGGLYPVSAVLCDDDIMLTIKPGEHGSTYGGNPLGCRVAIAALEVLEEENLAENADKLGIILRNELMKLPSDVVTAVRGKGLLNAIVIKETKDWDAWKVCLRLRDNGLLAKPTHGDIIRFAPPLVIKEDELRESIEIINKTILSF
From the text: In summary, enantiomerically pure 1 was synthesized from an enantiomerically pure Vince lactam in six steps.

OAT [2] = target: T1, OAT; test: OAT fluoride release assay; assay type: biochemical; details: without α-ketoglutarate, FIG. 3
Method: An OAT fluoride release assay was performed with NAL-1-47 and it was calculated that there were 13.02 fluoride ions released per enzyme active site (FIG. 3).

OAT [3] = target: T1, OAT; test: Dialysis assay of NAL-1-47 with OAT; assay type: biochemical; details: for Percent Activity Remaining of OAT with NAL-1-47: pre-incubated overnight at 37° C.
Method: NAL-1-47 was incubated with OAT then dialyzed to determine whether it functions as a reversible inhibitor or an irreversible inactivator of OAT. NAL-1-47 was pre-incubated overnight at 37° C. with OAT. The remaining activity of the OAT was determined for 20, 50, 80, and 120 equiv of NAL-1-47 per OAT active site. The inactivated OAT was then dialyzed for 144 h and using a control, it was confirmed that the control OAT retained the majority of its activity after this dialysis.

GABA-AT [4] = test: Concentration dependent assay of GABA-AT; assay type: biochemical
GABA-AT [5] = test: Time-dependent assay with GABA-AT; assay type: biochemical
OAT [6] = target: T1, OAT; test: Partition ratio assay of OAT; assay type: biochemical; details: with α-KG, FIG. 5
Method: A partition ratio assay of OAT with NAL-1-47 was performed to determine the ratio of the compound acting as a substrate to the compound inactivating the enzyme.

OAT [7] = target: T1, OAT; test: OAT inhibition / inactivation assay (concentration-dependent assay with OAT); assay type: biochemical
[8] = cocaine addiction in humans, 9-week double-blind trial; cited from earlier work
[9] = long-term administration; cited from earlier work
[10] = listed as S, S enantiomer, hydrochloride

## Cl.N[C@H]1C[C@@H](C(=O)O)C(F)(F)C1 [NAL-1-47, (1S,4S)-4-amino-2,2-difluorocyclopentanecarboxylic acid hydrochloride]
OAT [1]; OAT, Example 2, FIG. 4, read-out: kinact/KI (converted)
  kinact/KI: 1.13 M⁻¹ s⁻¹
OAT [1]; time-dependent assay with OAT, Example 1
  kinact/KI: 2.67 M⁻¹ s⁻¹
OAT [2]
  fluoride ions released per enzyme active site: 13.02
OAT [3]; 20 equiv per OAT active site
  Percent Activity Remaining of OAT with NAL-1-47: 67.3%
OAT [3]; 20 equiv
  Percent Activity Remaining of OAT with NAL-1-47 after 144 h Dialysis: 63.3%
OAT [3]; 50 equiv per OAT active site
  Percent Activity Remaining of OAT with NAL-1-47: 52.5%
OAT [3]; 50 equiv
  Percent Activity Remaining of OAT with NAL-1-47 after 144 h Dialysis: 38.5%
OAT [3]; 80 equiv per OAT active site
  Percent Activity Remaining of OAT with NAL-1-47: 31.7%
OAT [3]; 80 equiv
  Percent Activity Remaining of OAT with NAL-1-47 after 144 h Dialysis: 27.6%
OAT [3]; 120 equiv per OAT active site
  Percent Activity Remaining of OAT with NAL-1-47: 21.1%
OAT [3]; 120 equiv
  Percent Activity Remaining of OAT with NAL-1-47 after 144 h Dialysis: 15.1%
GABA-AT [4]; Conc. 0.0781 mM
  Activity Remaining (GABA-AT): 110.6%
GABA-AT [4]; Conc. 0.1563 mM
  Activity Remaining (GABA-AT): 100.7%
GABA-AT [4]; Conc. 0.3125 mM
  Activity Remaining (GABA-AT): 91.0%
GABA-AT [4]; Conc. 0.625 mM
  Activity Remaining (GABA-AT): 93.6%
GABA-AT [4]; Conc. 1.25 mM
  Activity Remaining (GABA-AT): 93.4%
GABA-AT [4]; Conc. 2.5 mM
  Activity Remaining (GABA-AT): 88.3%
GABA-AT [4]; Conc. 5 mM
  Activity Remaining (GABA-AT): 67.8%
GABA-AT [4]; Conc. 10 mM
  Activity Remaining (GABA-AT): 44.7%
GABA-AT [4]; hydrochloride
  inhibition of GABA-AT (in words): does not inhibit GABA-AT potently; also recorded: neither compound potently inhibited GABA-AT
GABA-AT [4]; listed as 1, hydrochloride
  inhibition of GABA-AT (in words): inhibitory activity against the enzymes GABA-AT and OAT
GABA-AT [4]; [10]
  inhibition of GABA-AT (in words): only very weakly inhibit GABA-AT
GABA-AT [5]
  inhibitory activity against GABA-AT in time-dependent assays (in words): no significant inhibitory activity
OAT [6]
  partition ratio: 54.5
OAT [7]; hydrochloride
  inhibition / inactivation of OAT (in words): shown to inactivate OAT; also recorded: found to inhibit OAT potently
OAT [7]; listed as 1, hydrochloride
  inhibition / inactivation of OAT (in words): inhibitory activity against the enzymes GABA-AT and OAT; also recorded: inhibit OAT more potently than the racemic version of this compound; also recorded: determined as an inactivator; also recorded: selectively inactivate OAT and was more potent than the racemic compound
OAT [7]; [10]
  inhibition / inactivation of OAT (in words): inactivate OAT

## N[C@@H]1C[C@H](C(=O)O)C(F)(F)C1 [NAL-1-73]
GABA-AT [4]
  inhibition of GABA-AT (in words): neither compound potently inhibited GABA-AT
GABA-AT [4]; Conc. 0.0781 mM
  Activity Remaining (GABA-AT): 100.9%
GABA-AT [4]; Conc. 0.1563 mM
  Activity Remaining (GABA-AT): 94.5%
GABA-AT [4]; Conc. 0.3125 mM
  Activity Remaining (GABA-AT): 95.1%
GABA-AT [4]; Conc. 0.625 mM
  Activity Remaining (GABA-AT): 103.5%
GABA-AT [4]; Conc. 1.25 mM
  Activity Remaining (GABA-AT): 88.8%
GABA-AT [4]; Conc. 2.5 mM
  Activity Remaining (GABA-AT): 85.2%
GABA-AT [4]; Conc. 5 mM
  Activity Remaining (GABA-AT): 70.3%
GABA-AT [4]; Conc. 10 mM
  Activity Remaining (GABA-AT): 55.3%
GABA-AT [4]; listed as R, R enantiomer
  inhibition of GABA-AT (in words): did not inhibit either OAT or GABA-AT potently
GABA-AT [5]
  inhibitory activity against GABA-AT in time-dependent assays (in words): no significant inhibitory activity
OAT [7]; listed as R, R enantiomer
  inhibition / inactivation of OAT (in words): did not inhibit either OAT or GABA-AT potently

## C=CC(N)CCC(=O)O (centres unmarked) [Vigabatrin]
[8]
  patients achieving abstinence: up to 28%
[9]
  permanent vision loss, share of epilepsy patients: 25-40%
